Where two headings read alike, the source gives them in different places.
Experiments:
Format in all cases: in vivo
[1] = tested on: Brown Stink Bug (Euschistus heros); test: B.6 sprayed soybean seedlings (Intacta and BMX-Potencia), adults; conditions: for mortality (%) 1 D.A.A / mortality (%) 2 DAA / mortality (%) 6 DAA / mortality (Abbott %) 1 D.A.A / mortality (Abbott %) 2 DAA / mortality (Abbott %) 6 DAA / mortality at 10 ppm: Ginkgolide A 100 ppm a.i, Bilobalide 10 ppm a.i; for efficacy on soybean plants with Bacillus thuringiensis toxin trait (INTACTA) versus without (BMX-POTENCIA): comparison of INTACTA with BMX-POTENCIA; for mortality at 10 ppm: Euschistus heros
Procedure: B.6 Brown Stink Bug (Euschistus heros)
(§1) The active compound is dissolved at the desired concentration in a mixture of 1:1 (vol:vol) distilled water:acetone.
Soybean seedlings of Intacta and BMX-Potencia with one pair of true leaves were sprayed with 2 ml solution using an airbrush. After dry, the plants in small pots were placed inside a transparent plastic cage and infested with 10 adults adult stage individuals. Treated cups were kept at about 25° C. Percent mortality was recorded after 1, 2, and 6 days after application.
• Corrected mortality according to Abbott, W. S., A method of computing the effectiveness of an insecticide, J. Econ. Entomal., 18 (1925) 265-267.

[2] = tested on: Green Soldier Stink Bug (Nezara viridula); test: B.8 lima bean seed treatment, 2nd instar nymphs; conditions: 0.063 mg ai/seed, infested ten days after treatment, read four days after infestation
Procedure: B.8 Green Soldier Stink Bug (Nezara viridula)
Pots (25.8 cm^2) were filled with a 1:1 mixture of sifted (No. 10 sieve) North Carolina loamy sand soil and play sand. Technical material was dissolved in DMSO in a 20 ml scintillation vial. A total application volume of 25 μl of solution was added to a 20 ml vial, ten lima bean seeds (P. lunatus) were added, and the vial was vortexed for 1 minute. Seeds were allowed to dry and planted at a depth of 2 cm later the same day. One seed was planted per pot. Pots were held in the greenhouse and watered daily until infestation.
Ten days after treatment, plants were infested with five 2nd instar nymphs. Plants were covered with organza fabric bags to prevent escape. Plants were held in an environmental chamber (25±2° C., 24 L) and watered as needed.
(§2) Four days after infestation, the number of live nymphs on each plant was recorded, and means were calculated for each treatment. The percent control was calculated as the percent mortality relative to the solvent blank.

[3] = tested on: Forest Shield Bug (Eysarcoris aeneus); test: B.4 peanut and soybean seed spray test, adults; conditions: 120 h, read-out: mortality in comparison with untreated controls
Procedure: B.4 Forest Shield Bug (Eysarcoris aeneus)
as §1
Row peanuts and soybean seeds were placed in a plastic cup and inoculated with ten adult stage individuals. Insects, food and inside of container are sprayed with 1 ml solution using an air brush. After drying, a water supply source will be placed in the cup and the cup closed with a screened lid. Treated cups were kept at about 20° C. Percent mortality was recorded after 5 days.

[4] = tested on: Rice Leaf Bug (Trigonotylus caelestialium); test: B.5 sprayed wheat seedling test, 2nd and 3rd stage nymphs; conditions: 120 h, read-out: mortality in comparison with untreated controls
Procedure: B.5 Rice Leaf Bug (Trigonotylus caelestialium)
as §1
Small wheat seedlings in glass tubes were sprayed with 200 microliter/tube by air brush. After drying, ten 2nd and 3rd nymph stage individuals were released in the tube and the tube closed with a screened lid. Treated cups were kept at about 20° C. Percent mortality was recorded after 5 days.

[5] = tested on: Green Soldier Stink Bug (Nezara viridula); test: B.7 soil drench on lima bean plants, 2nd instar nymphs; conditions: read-out: mortality in comparison with untreated controls
Procedure: B.7 Green Soldier Stink Bug (Nezara viridula)
Lima Bean (Phaseolus lunatus, ‘Henderson Bush,’ Lot #—VR06650) plants were transplanted at the two true-leaf stage into 25.8 cm^2 pots filled with sifted (No. 10 sieve) North Carolina loamy sand soil. Pots were held in the greenhouse and watered daily until treatment. Three days after transplant, the compounds were dissolved in acetone and then diluted with water for a final concentration of 50% acetone. Treatments were applied as a drench in 1 ml solution per plant. Plants were held in an environmental chamber (25±2° C., 24 L) and watered as needed for the duration of the test.
as §2, with “Three days after treatment, plants were infested with five 2nd instar nymphs. Plants were covered with organza fabric bags to prevent escape. Four” for “Four”

[6] = tested on: Brown Stink Bug (Euschistus heros); test: B.3 bean pod spray test, adults; conditions: 120 h, read-out: mortality in comparison with untreated controls
Procedure: B.3 Brown Stink Bug (Euschistus heros)
as §1
Fresh bean pods were placed in a transparent plastic cup and inoculated with ten adult stage individuals. Insects, food and inside of container are sprayed with 1 ml solution using an air brush. Treated cups were kept at about 25° C. Percent mortality was recorded after 5 days.

[7] = tested on: Orchid Thrips (Dichromothrips corbetti); test: B.2 floral-immersion test on orchid petals, adult thrips; conditions: 72 h, read-out: mortality in comparison with untreated controls
Procedure: B.2 Orchid Thrips (Dichromothrips corbetti)
Dichromothrips corbetti adults used for bioassay were obtained from a colony maintained continuously under laboratory conditions. For testing purposes, the test compound is diluted in a 1:1 mixture of acetone:water (vol:vol), plus Kinetic HV at a rate of 0.01% v/v.
Thrips potency of each compound was evaluated by using a floral-immersion technique. All petals of individual, intact orchid flowers were dipped into treatment solution and allowed to dry in Petri dishes. Treated petals were placed into individual re-sealable plastic along with about 20 adult thrips. All test arenas were held under continuous light and a temperature of about 28° C. for duration of the assay. After 3 days, the numbers of live thrips were counted on each petal. The percent mortality was recorded 72 hours after treatment.

[8] = tested on: Green Soldier Stink Bug (Nezara viridula); test: B.1 soybean pod spray test, 3rd instar nymphs; conditions: 120 h, read-out: mortality in comparison with untreated controls
Procedure: B.1 Green Soldier Stink Bug (Nezara viridula)
The active compound is dissolved at the desired concentration in a mixture of 1:1 (vol:vol) distilled water:acetone. Surfactant (Kinetic HV) is added at a rate of 0.01% (vol/vol). The test solution is prepared at the day of use.
Soybean pods were placed in microwavable plastic cups lined with moist filter paper and inoculated with ten 3rd instar N. viridula. Using a hand atomizer, approximately 2 ml solution is sprayed into each cup. Treated cups were kept at about 28-29° C. and relative humidity of about 50-60%. Percent mortality was recorded after 5 days.

In the case of `C[C@@H]1C(=O)O[C@H]2C[C@@]34[C@H]5C[C@@H](C(C)(C)C)[C@]36[C@@H](OC(=O)[C@@H]6O)O[C@@]4(C(=O)O5)[C@]21O` [Ginkgolide A], the “mortality (%) 1 D.A.A” value ([1]; BMX - POTENCIA soybean, 1 day after application) is reported as 10.0%, the “mortality (%) 2 DAA” value ([1]; BMX - POTENCIA soybean, 2 days after application) is reported as 10.0% and the “mortality (%) 6 DAA” value ([1]; BMX - POTENCIA soybean, 6 days after application) is reported as 57.5%. The “mortality (Abbott %) 1 D.A.A” value ([1]; BMX - POTENCIA soybean, corrected according to Abbott, 1 day after application) was 7.7%, the “mortality (Abbott %) 2 DAA” value ([1]; BMX - POTENCIA soybean, corrected according to Abbott, 2 days after application) was 5.3% and the “mortality (Abbott %) 6 DAA” value ([1]; BMX - POTENCIA soybean, corrected according to Abbott, 6 days after application) was 46.9%. For the same compound, the “mortality (%) 1 D.A.A” value ([1]; INTACTA soybean, 1 day after application) was 12.5%, the “mortality (%) 2 DAA” value ([1]; INTACTA soybean, 2 days after application) was 20.0% and the “mortality (%) 6 DAA” value ([1]; INTACTA soybean, 6 days after application) was 62.5%. The “mortality (Abbott %) 1 D.A.A” value ([1]; INTACTA soybean, corrected according to Abbott, 1 day after application) was 7.9%, the “mortality (Abbott %) 2 DAA” value ([1]; INTACTA soybean, corrected according to Abbott, 2 days after application) was 15.8% and the “mortality (Abbott %) 6 DAA” value ([1]; INTACTA soybean, corrected according to Abbott, 6 days after application) was 53.1%. The “efficacy on soybean plants with Bacillus thuringiensis toxin trait (INTACTA) versus without (BMX-POTENCIA)” value [1] was “higher efficacy” and the “mortality in comparison with untreated controls” value [2] was “at least 75%”.
Work on `CC(C)(C)[C@]1(O)C[C@@H]2OC(=O)C[C@@]23C(=O)O[C@@H]2OC(=O)[C@H](O)[C@]213` [Bilobalide, (3aS,5aR,8aS,9R,10aR)-9-tert-butyl-8,9-dihydroxydihydro-9H-furo[2,3-b]furo[3′,2′;2,3]cyclopenta[1,2-c]furan-2,4,7(3H,8H)-trione] yielded a mortality at 100 ppm [3] of at least 75%, a mortality at 10 ppm ([1]; 24 h, read-out: mortality (%) 1 D.A.A, BMX - POTENCIA soybean, 1 day after application) of 5% and a mortality at 10 ppm ([1]; 24 h, read-out: mortality (%) 1 D.A.A, INTACTA soybean, 1 day after application) of 7.5%. It also gave a mortality at 10 ppm ([1]; 24 h, read-out: mortality (Abbott %) 1 D.A.A, BMX - POTENCIA soybean, corrected according to Abbott, 1 day after application) of 2.6%, a mortality at 10 ppm ([1]; 24 h, read-out: mortality (Abbott %) 1 D.A.A, INTACTA soybean, corrected according to Abbott, 1 day after application) of 2.6% and a mortality at 10 ppm ([1]; 48 h, read-out: mortality (%) 2 DAA, BMX - POTENCIA soybean, 2 days after application) of 7.5%. It also gave a mortality at 10 ppm ([1]; 48 h, read-out: mortality (%) 2 DAA, INTACTA soybean, 2 days after application) of 20%, a mortality at 10 ppm ([1]; 48 h, read-out: mortality (Abbott %) 2 DAA, BMX - POTENCIA soybean, corrected according to Abbott, 2 days after application) of 2.6% and a mortality at 10 ppm ([1]; 48 h, read-out: mortality (Abbott %) 2 DAA, INTACTA soybean, corrected according to Abbott, 2 days after application) of 15.8%. It also gave a mortality at 10 ppm ([1]; 144 h, read-out: mortality (%) 6 DAA, BMX - POTENCIA soybean, 6 days after application) of 60%, a mortality at 10 ppm ([1]; 144 h, read-out: mortality (%) 6 DAA, INTACTA soybean, 6 days after application) of 72.5% and a mortality at 10 ppm ([1]; 144 h, read-out: mortality (Abbott %) 6 DAA, BMX - POTENCIA soybean, corrected according to Abbott, 6 days after application) of 50%. For the same compound, the mortality at 10 ppm ([1]; 144 h, read-out: mortality (Abbott %) 6 DAA, INTACTA soybean, corrected according to Abbott, 6 days after application) was 65.6%, the “efficacy on soybean plants with Bacillus thuringiensis toxin trait (INTACTA) versus without (BMX-POTENCIA)” value [1] was “higher efficacy” and the mortality at 100 ppm [4] was at least 75%. The mortality at 300 g/ha [5] was at least 75%, the mortality at 100 ppm [6] was at least 75% and the mortality at 500 ppm [7] was at least 75%. It also gave a mortality at 10 ppm [8] of at least 75%, a mortality at 100 ppm [8] of at least 75% and a mortality at 300 ppm [8] of at least 75%. The mortality at 500 ppm [8] was at least 75%.

Source: US10165778B2, “Method for controlling pests in soybean” (BASF SE, priority 2014, dated 2019)
